Measured values published in patent publication US11419806B2, “Prebiotic oral care methods using a saccharide” (Colgate-Palmolive Company, priority 2013, dated 2022).

Key:
Experiment in all cases: Phenotype microarray metabolic activity
Assay type in all cases: cell-based
Actinomyces naeslundii = details: A naeslundii
Procedure: (§1) The extent of metabolic activity of the tested bacteria in the presence of the above-mentioned saccharides after 24 hours and 48 hours was investigated through a high throughput phenotype microarray system (PM) for microbial cells (Biolog Inc.). Each PM can contain up to 95 different biochemical compounds (e.g. saccharides) that may act as substrates for bacteria as well as one negative control, not containing the substrates. Microarray plates were used in which the different wells of each plate were pre-loaded (by the manufacturer, Biolog Inc.) with different saccharides to be tested. Each bacterial species was tested using a separate microarray plate. Thus, a single bacterial species was tested with a variety of saccharides on each particular plate. The microarrays are based on redox technology, using cell respiration as a universal reporter. Active cell respiration results in the reduction of a tetrazolium dye and in the formation of a strong color—for example, when using the tetrazolium dye “Biolog Redox Dye Mix D”, the color changes from transparent/colorless to purple when the dye is reduced. The observation of this color change indicates which of the substrates improve the metabolic activity and health of the cells.
(§2) Each bacterial species was collected from blood agar plates (incubated for 48 hours anaerobically at 37° C.) and transferred to an IF-0 Base inoculation fluid (Biolog Inc.), which is a nutritionally poor medium. The resulting cell suspension was adjusted to a transmittance of 42% (relative to the transmittance of the base inoculation fluid with no bacterial species present) at 492 nm using a BioRad SmartSpec 3000 Photometer (the adjustment being effected by adding either further inoculation fluid or further bacteria until the transmittance of 42% was achieved). A 1:5 dilution of this suspension was prepared by mixing 3 mL of the 42% transmittance cell suspension with 15 mL of an inoculation fluid (which inoculation fluid was formed by mixing 11.6 mL sterile water, 62.5 mL IF-0 base inoculation fluid and 0.9 mL of the tetrazolium dye “Biolog Redox Dye mix D”), resulting in a final cell density which was equal to 85% transmittance using a BioRad SmartSpec 3000 Photometer. For each of the saccharides tested, the microarray plate (obtained from the supplier (Biolog Inc.) with saccharides already present in the relevant wells in powder form) was directly inoculated with 100 μL/well of this 85% transmittance cell suspension.
(§3) All plates were incubated in an anaerobic atmosphere at 37° C. Color changes were measured spectrophotometrically at 492 nm (Thermo Scientific Multiskan Ascent) at 24 hrs and 48 hrs using the same plate at both time points. […] After 24 hrs and 48 hrs under continuous shaking in a Multiscan microplate reader, the optical density (OD) of the synthetic medium at 24 hours and 48 hours was measured (using the microplate reader) at a wavelength of 492 nm for each combination of bacterium/saccharide, and for each of their respective controls (i.e. which contained the particular bacterium but no saccharide).
(§4) The experiment was carried out three times for each combination of bacterium with saccharide, with each repeat being carried out on a different day (thus providing three biological replicas). The controls were also carried out three times, as above. The values shown are the average (mean) of the three single values obtained (as detailed above) for each combination of bacterium with saccharide, at 24 hrs and at 48 hrs.

Actinomyces viscosus = details: A viscosus
Procedure: as §1, §2, §3, §4

[1] = system: Aggregatibacter actinomycetemcomitans; details: A actinomycetemcomitans
Procedure: as §1, §2, §3, §4

Capnocytophaga sputigena = details: C sputigena
Procedure: as §1, §2, §3, §4

Fusobacterium nucleatum = details: F nucleatum
Procedure: as §1, §2, §3, §4

Porphyromonas gingivalis = details: P gingivalis
Procedure: as §1, §2, §3, §4

Prevotella intermedia = details: P intermedia
Procedure: as §1, §2, §3, §4

S sanguinis = system: S sanguinis
Procedure: as §1, §2, §3, §4

Streptococcus gordonii = details: S gordonii
Procedure: as §1, §2, §3, §4

Streptococcus mitis = details: S mitis
Procedure: as §1, §2, §3, §4

Streptococcus mutans = details: S mutans
Procedure: as §1, §2, §3, §4

Streptococcus salivarius = details: S salivarius
Procedure: as §1, §2, §3, §4

Streptococcus sobrinus = details: S sobrinus
Procedure: as §1, §2, §3, §4

Tannerella forsythia = details: T forsythia
Procedure: as §1, §2, §3, §4

Veillonella parvula = details: V parvula
Procedure: as §1, §2, §3, §4

Structure (SMILES): O[C@H]1[C@H](O)[C@@H](O)[C@H](O)[C@@H](O)[C@H]1O [Myo-Inositol, (1R,2R,3S,4S,5R,6S)-cyclohexane-1,2,3,4,5,6-hexol]
- metabolic activity: OD 492 nm divided by OD of control (control = 1) (Actinomyces naeslundii; 24 hrs): 3.8627
- metabolic activity: OD 492 nm divided by OD of control (control = 1) (Actinomyces naeslundii; 48 hrs): 4.5573
- metabolic activity: OD 492 nm divided by OD of control (control = 1) (Actinomyces viscosus; 24 hrs): 4.3733
- metabolic activity: OD 492 nm divided by OD of control (control = 1) (Actinomyces viscosus; 48 hrs): 4.6590
- metabolic activity: OD 492 nm divided by OD of control (control = 1) ([1]; 24 hrs): 1.3215
- metabolic activity: OD 492 nm divided by OD of control (control = 1) ([1]; 48 hrs): 1.5191
- metabolic activity: OD 492 nm divided by OD of control (control = 1) (Capnocytophaga sputigena; 24 hrs): 0.5471
- metabolic activity: OD 492 nm divided by OD of control (control = 1) (Capnocytophaga sputigena; 48 hrs): 0.8107
- metabolic activity: OD 492 nm divided by OD of control (control = 1) (Fusobacterium nucleatum; 24 hrs): 0.9063
- metabolic activity: OD 492 nm divided by OD of control (control = 1) (Fusobacterium nucleatum; 48 hrs): 0.8999
- metabolic activity: OD 492 nm divided by OD of control (control = 1) (Porphyromonas gingivalis; 24 hrs): 0.8077
- metabolic activity: OD 492 nm divided by OD of control (control = 1) (Porphyromonas gingivalis; 48 hrs): 0.7871
- metabolic activity: OD 492 nm divided by OD of control (control = 1) (Prevotella intermedia; 24 hrs): 1.0174
- metabolic activity: OD 492 nm divided by OD of control (control = 1) (Prevotella intermedia; 48 hrs): 1.0226
- metabolic activity: OD 492 nm divided by OD of control (control = 1) (S sanguinis; 24 hrs): 0.9436
- metabolic activity: OD 492 nm divided by OD of control (control = 1) (S sanguinis; 48 hrs): 1.0400
- metabolic activity: OD 492 nm divided by OD of control (control = 1) (Streptococcus gordonii; 24 hrs): 0.8556
- metabolic activity: OD 492 nm divided by OD of control (control = 1) (Streptococcus gordonii; 48 hrs): 0.8202
- metabolic activity: OD 492 nm divided by OD of control (control = 1) (Streptococcus mitis; 24 hrs): 1.0571
- metabolic activity: OD 492 nm divided by OD of control (control = 1) (Streptococcus mitis; 48 hrs): 0.9877
- metabolic activity: OD 492 nm divided by OD of control (control = 1) (Streptococcus mutans; 24 hrs): 0.8961
- metabolic activity: OD 492 nm divided by OD of control (control = 1) (Streptococcus mutans; 48 hrs): 0.8221
- metabolic activity: OD 492 nm divided by OD of control (control = 1) (Streptococcus salivarius; 24 hrs): 0.9641
- metabolic activity: OD 492 nm divided by OD of control (control = 1) (Streptococcus salivarius; 48 hrs): 0.8260
- metabolic activity: OD 492 nm divided by OD of control (control = 1) (Streptococcus sobrinus; 24 hrs): 0.9699
- metabolic activity: OD 492 nm divided by OD of control (control = 1) (Streptococcus sobrinus; 48 hrs): 0.9399
- metabolic activity: OD 492 nm divided by OD of control (control = 1) (Tannerella forsythia; 24 hrs): 0.9597
- metabolic activity: OD 492 nm divided by OD of control (control = 1) (Tannerella forsythia; 48 hrs): 0.9564
- metabolic activity: OD 492 nm divided by OD of control (control = 1) (Veillonella parvula; 24 hrs): 1.0283
- metabolic activity: OD 492 nm divided by OD of control (control = 1) (Veillonella parvula; 48 hrs): 1.0829
